{"source": "patent US20210403485A1", "about": "“PYRAZOLOPYRIMIDINE DERIVATIVE AS SELECTIVE TRK INHIBITOR” (SHANDONG LUYE PHARMACEUTICAL CO., LTD., priority 2018, published 2021)", "key": {"[1]": {"molecular_target": "T1, TrkA-G595R (Homo sapiens, UniProt P04629, G595R)", "T1 construct": "purchased Reaction Biology Corp", "T1 sequence (P04629 33-796 G595R)": "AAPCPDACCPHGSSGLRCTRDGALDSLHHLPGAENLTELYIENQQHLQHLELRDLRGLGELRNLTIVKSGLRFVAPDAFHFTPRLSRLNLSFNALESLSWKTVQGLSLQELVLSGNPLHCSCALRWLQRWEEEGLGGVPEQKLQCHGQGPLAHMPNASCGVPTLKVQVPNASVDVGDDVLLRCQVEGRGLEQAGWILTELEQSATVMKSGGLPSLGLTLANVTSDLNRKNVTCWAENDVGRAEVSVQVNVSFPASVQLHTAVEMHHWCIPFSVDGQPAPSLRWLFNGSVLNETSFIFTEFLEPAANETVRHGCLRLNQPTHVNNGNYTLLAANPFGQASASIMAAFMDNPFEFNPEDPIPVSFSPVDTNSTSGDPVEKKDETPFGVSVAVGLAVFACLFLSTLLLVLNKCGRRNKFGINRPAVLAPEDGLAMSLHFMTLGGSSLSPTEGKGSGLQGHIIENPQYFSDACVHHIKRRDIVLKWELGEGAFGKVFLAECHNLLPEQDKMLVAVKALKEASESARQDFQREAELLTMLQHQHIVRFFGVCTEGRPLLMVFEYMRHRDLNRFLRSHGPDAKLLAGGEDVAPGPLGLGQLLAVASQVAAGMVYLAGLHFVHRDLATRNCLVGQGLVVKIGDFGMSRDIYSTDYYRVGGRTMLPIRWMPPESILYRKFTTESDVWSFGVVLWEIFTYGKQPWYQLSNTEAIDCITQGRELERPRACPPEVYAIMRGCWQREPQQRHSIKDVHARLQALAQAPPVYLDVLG", "experiment": "Kinase inhibitory activity (33P-ATP, filtration-binding method, Reaction Biology Corp.)", "assay_type": "biochemical", "how_it_was_run": "(§1)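 Radiometric kinase assay: enzyme-compound mixture preincubated 20 minutes at room temperature, then reaction started with ^33P-ATP and run 120 minutes at room temperature. Filtration-binding readout. Activity expressed relative to DMSO control; IC50 from fitted dose-response curves.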"}, "[2]": {"molecular_target": "T2, TrkC (Homo sapiens, UniProt Q16288)", "T2 construct": "purchased Reaction Biology Corp", "T2 sequence (Q16288 32-839)": "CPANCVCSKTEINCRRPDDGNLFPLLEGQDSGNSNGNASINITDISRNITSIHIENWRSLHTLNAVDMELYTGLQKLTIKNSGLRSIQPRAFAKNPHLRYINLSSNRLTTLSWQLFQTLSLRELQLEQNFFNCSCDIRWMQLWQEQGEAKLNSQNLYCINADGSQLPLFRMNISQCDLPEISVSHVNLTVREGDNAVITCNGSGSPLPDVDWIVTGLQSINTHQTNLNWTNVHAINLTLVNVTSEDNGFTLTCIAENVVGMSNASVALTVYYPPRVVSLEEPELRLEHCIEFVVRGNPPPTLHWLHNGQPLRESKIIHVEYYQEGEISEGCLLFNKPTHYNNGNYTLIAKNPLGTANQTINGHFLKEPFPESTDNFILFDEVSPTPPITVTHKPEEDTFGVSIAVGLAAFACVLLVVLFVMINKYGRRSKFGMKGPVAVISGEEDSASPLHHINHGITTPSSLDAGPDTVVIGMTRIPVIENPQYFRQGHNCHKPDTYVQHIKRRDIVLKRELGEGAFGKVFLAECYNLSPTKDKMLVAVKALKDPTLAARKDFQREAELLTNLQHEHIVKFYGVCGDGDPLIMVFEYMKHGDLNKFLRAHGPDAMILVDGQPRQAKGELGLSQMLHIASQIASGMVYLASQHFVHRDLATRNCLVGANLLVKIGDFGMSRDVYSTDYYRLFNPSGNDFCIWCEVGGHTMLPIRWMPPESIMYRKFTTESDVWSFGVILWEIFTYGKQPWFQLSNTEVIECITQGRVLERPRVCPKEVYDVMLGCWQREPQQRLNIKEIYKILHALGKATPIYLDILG", "experiment": "Kinase inhibitory activity (33P-ATP, filtration-binding method, Reaction Biology Corp.)", "assay_type": "biochemical", "how_it_was_run": "as §1"}}}
{"smiles": "O=C1NC2(CC2)COc2ncc(F)cc2C2COCCN2c2ccn3ncc1c3n2", "note": "(single isomer, unassigned) [WX001B]", "values": [{"measurement": "IC50", "setting": "[1]", "value": 3.5, "unit": "nM"}, {"measurement": "IC50", "setting": "[2]", "value": 0.2, "unit": "nM"}]}
